How the values were obtained:
[1] = test system: HLA-DRB5 (MHC II); experiment: IFN stimulated gene expression by qRT-PCR (HLA-DRB5), TNBC human xenograft tumors; assay type: in vivo; details: single components vs combination
Experimental: It was tested in 6 treated and 5 untreated tumors. *P<0.05, **P<0.01, ***P<0.005, ****P<0.001. Data represented as mean±SEM.

[2] = test system: PDL-1; experiment: PDL-1 gene expression by qRT-PCR, human MDA-MB-231 xenograft tumors; assay type: in vivo; details: human tumors in immune compromised mice, 4-5 mice each group
Description: Data represented as mean±SEM.

SMILES | HLA-DRB5 (MHC II) gene expression [1] | relative gene expression of PDL-1, increase [2]
Nc1ncn([C@H]2C[C@H](O)[C@@H](CO)O2)c(=O)n1 [DAC, decitabine] | no significant effect | 2 fold
O=C(O[C@@H]1Cc2c(O)cc(O)cc2O[C@@H]1c1cc(O)c(O)c(O)c1)c1cc(O)c(O)c(O)c1 [EGCG, epigallocatechin gallate] | no significant effect | –

Reference: patent US12648927B2, “Compositions and methods of enhancing immunotherapies” (Cha Therapeutics, Inc., priority 2018, dated 2026)
